One test deals with 735 anti PSA antibody. The test can be described thus: Screening ELISA of the NIH Clinical Collection 1 Library for organic PSA mimetics. Particulars: 10 µM of library compound pre-incubated with 735 antibody; repeated three times. Type of test: binding. How it is done: To identify organic PSA mimetics the NIH Clinical Collection 1 Library was screened. PSA mimicking peptide (NTHTDPYIYPIDC; Mehanna et al., (2009); Brain 132 (Pt 6): 1449-1462.) coupled to catalase (3 µg/ml; 25 µl/well) was immobilized on the surface of 384-well flat bottom microtiter plates with high binding surface (Corning Life Sciences, Amsterdam, The Netherlands). Wells were washed with […], blocked with 1% bovine serum albumin for 1 h at room temperature. 735 anti PSA antibody (0.1 µg/ml; 25 µl/well) was incubated with PBS, PBS containing DMSO solvent control or PBS containing 10 µM of the organic compounds from the library for 1 h at room temperature and then added to the wells coated with […] coupled to catalase. As control for positive competition, 735 antibody was incubated with the PSA mimicking peptide (10 µM). After incubation for 1 h, wells were washed 10 times with PBS containing 0.05% Tween-20 (PBST), HRP-coupled secondary antibody (1:5,000 in PBS) was added for 1 h and after 10 more washes with PBST, binding of antibody was visualized by incubating wells with 25 µl of 0.4 mg/ml o-phenylenediamine dihydrochloride (Thermo Scientific) for 15 min. The reaction was stopped by addition of 25 µl 2.5 M H2SO4 and quantified using an ELISA reader (EnVision with Plateworks software, Perkin Elmer, Hamburg, Germany). […]

The test system of the next test is anti-PSA antibody 735. As to the kind of experiment: Competition ELISA: antibody 735 binding to immobilized PSA mimicking peptide. The protocol:
To confirm that the compounds identified in the screening from Example 1 are indeed PSA mimetics, binding of tegaserod maleate ((E)-but-2-enedioic acid; 1-[[(Z)-(5-methoxyindol-3-ylidene) methyl]amino]-2-pentylguanidine; hereafter termed tegaserod) and the control compound nitrendipine (5-O-ethyl 3-O-methyl-2,6-dimethyl-4-(3-nitrophenyl)-1,4-dihydropyridine-3,5-dicarboxylate) to the PSA antibody 735 was analyzed by competition ELISA. 384-well flat bottom microtiter plates (Corning Life Sciences) were coated in triplicates with 25 µl of PSA mimicking peptide coupled to catalase (3 µg/ml) or PBS alone at 4°C overnight. All following steps were carried out at room temperature. After blocking with 1% BSA in PBS for 1 h, the wells were washed three times for 5 min with PBS containing 0.05% Tween-20 (PBST). Wells were incubated with increasing concentrations of tegaserod and nitrendipine, pre-incubated with anti-PSA antibody 735 (0.1 µg/ml) for 1 h. […] The reaction was stopped by addition of 50 µl 2.5 M H2SO4 and quantified using an ELISA reader (µQuant, Bio-TEK, Winooski, VT, USA) at 490 nm and the software KCjunior (Bio-TEK).

Test [1] relates to murine cerebellar granule neurons (cGNs), Schwann cells, and motoneurons. The test can be described thus: In vitro neurite/process outgrowth, statements covering all cell types. The format is cell-based, C57BL/6J mice. How it is done:
(§1) Primary cultures of cerebellar neurons or Schwann cells were prepared from cerebellum or dorsal root ganglia of 7-day-old C57BL/6J mice as described in Mehanna et al. (2009), Brain, 132 (Pt 6): 1449-62 and Loers et al. (2005), J. Neurochem., 92(6): 1463-76. Motoneurons were prepared from E14 C57BL/6J mice as described in Simova et al. (2006), Ann. Neurol., 60(4): 430-437. In brief, 48-well plates were coated with 0.01% poly-L-lysine (PLL) or poly-L-ornithine (PLO) overnight at 4°C, washed twice with water and air-dried. Directly before use, plates were washed twice with PBS, and Schwann cells, cerebellar neurons (PLL) or motoneurons (PLO) were seeded at a density of 1.25 x 10^4 (Schwann cells and motoneurons) or 2.5 x 10^4 cells (cerebellar neurons) per well in 250 µl of corresponding serum-free culture medium. Soluble organic compounds were added to the culture 1 h after seeding in increasing concentrations. After maintenance for 24 h at 37°C, cells were fixed with 2.5% glutaraldehyde and stained with 1% methylene blue/toluidine blue in 1% borax. Morphological quantification of neurite or process lengths was performed as described in Mehanna et al. (2009), see above. Schwann cell processes and neurites of cerebellar neurons with a length of at least one cell body diameter were counted and total neurite or process length per cell was determined by counting 50 cells in each of two wells per experiment. At least three independent experiments were performed for each culture. Also, the activity of tegaserod with the PSA peptide mimic and the bacterial PSA analogue, colominic acid, on neurite and process extension experiments was compared.

The subject of another test is murine motoneurons. The test can be described thus: In vitro neurite outgrowth of motoneurons. The format is cell-based, C57BL/6J mice. Particulars: tegaserod, cisapride, GR113808 100 nM; colominic acid 3 µM; PSA mimicking peptide 30 µM; Figure 2B. How it is done:
as §1

Test [2] relates to cerebellar granule neurons (cGNs). As to the kind of experiment: In vitro neurite outgrowth of cerebellar granule neurons. Type of test: cell-based, C57BL/6J mice. Particulars: compared to control; Figure 2C, D. How it is done:
as §1

The test system of the next test is quadriceps muscle. As to the kind of experiment: Quadriceps muscle mass after femoral nerve injury. The format is in vivo, C57BL/6J mice. Particulars: 15 week recovery, control group 111 mg. The protocol:
Tegaserod was evaluated in a 2 mm femoral nerve defect of 12-week old C57BL/6J mice as previously described in Mehanna et al. (2009), see above. Briefly, mice were anesthetized and the femoral nerve of the left rear leg exposed. The nerve was bis-sected 3 mm proximal to the branching of the saphenous and motor branches, and the nerve ends were sutured 0.5 mm into a 3 mm polyethylene conduits with 0.58 mm inner diameter (Becton Dickinson), leaving an overall gap length of 2 mm. Conduits were filled with PuraMatrix peptide hydrogel (Becton Dickinson 354250) using 2x PBS as the gelation stimulant. Tegaserod was dissolved in the 2x PBS at concentrations of 500 nM and 5,000 nM, resulting in final concentrations of 250 nM and 2,500 nM once the PBS was combined 1:1 v/v with the PuraMatrix.
The quadriceps muscle, which is solely innervated by the femoral nerve, was extracted from each mouse and weighed at the end of the 15 week recovery period. The quadriceps muscles were removed from the injured and uninjured hind limbs of the mice. The quadriceps femoris muscle was identified by first removing the skin overlying the cranial thigh. The muscle was bluntly dissected starting distally at the level of the patellar tendon, working proximally. […]

As for `[H]/N=C(/NCCCCC)N/N=C/c1c[nH]c2ccc(OC)cc12` [tegaserod, (E)-but-2-enedioic acid; 1-[[(Z)-(5-methoxyindol-3-ylidene)methyl]amino]-2-pentylguanidine], the “identification as organic compound that could potentially mimic PSA” value in the test with 735 anti PSA antibody is “could potentially mimic PSA”. For the same compound, the “concentration of maximal inhibition of binding of mAb 735 with the PSA peptide mimic” value in the test on anti-PSA antibody 735 (competition ELISA, Figure 1A) is “approximately 100 nM”. Moreover, the “inhibition of binding of mAb 735 with the PSA peptide mimic (in words)” value with anti-PSA antibody 735 (increasing concentrations, pre-incubated with antibody 735 (0.1 µg/ml) for 1 h) is given as “inhibit binding of mAb 735 with the PSA peptide mimic in a dose dependent manner”. Moreover, the minimal effective concentration in test [1] (Mus musculus, Neuron, 24 h, dose-response curve, Figure 2A, read-out: concentration at which an effect on neurite and process extension was shown) worked out at 0.001 µM. Besides, the “concentration of optimal effect on neurite and process extension” value in test [1] (all cell types, Figure 2A) is 100 nM. Further, the “concentration of maximal stimulatory effects” value in test [1] (neurite and process extension of neurons and Schwann cells) was 10 to 250 nM. In addition, in test [1] (neurons and Schwann cells), the “effect of overdosing / higher concentrations (in words)” value was “the stimulatory effect was reduced or even abolished”, the “times more effective than colominic acid in stimulating process formation” value is “about 20 times” and the “times more effective than the PSA mimicking peptide in stimulating process formation” value was “about 200 times”. Besides, the “effect on neurite extension of murine motoneurons (in words)” value with murine motoneurons was “significant stimulatory effect”. Moreover, the “effect on neurite outgrowth of cGNs (in words)” value in test [2] is reported as “significantly enhance neurite/process outgrowth compared to control”. The “average quadriceps muscle mass, injured limb” value with quadriceps muscle (250 nM, non-injured legs 208 mg) was 165 mg. Besides, in the test with quadriceps muscle (2,500 nM, failed to reach statistical significance), the “quadriceps muscle mass, injured limb” value is recorded as 127 mg.

For the origin of these results see patent publication EP2724723A1, “Tegaserod for use in the treatment of nerve injuries” (Universitätsklinikum Hamburg-Eppendorf, priority 2012, dated 2014).
